# Results taken from patent US9422363B2, “Synthetic apolipoprotein E mimicking polypeptides and methods of use” (UAB RESEARCH FOUNDATION, priority 2007, dated 2016).
# How the values were obtained:
# [1] = system: WHHL rabbits; conditions: single administration; cited from earlier work
# [2] = system: ZDF (fa/fa) rats; test: Onset and progression of DM-2 in male ZDF (fa/fa) rats: fasting plasma glucose, insulin, adiponectin; assay type: in vivo, rat
# Procedure: This example outlies studies carried out for the evaluation of the effects of these peptides in the prevention of onset and progression of DM-2. […] Baseline fasting plasma was collected prior to peptide administration. Biweekly injections (6 for Ac-hE18A-NH2 group and 5 for L-4F group were administered before day 18). From day 18-day 33, no additional peptide/vehicle injection were performed. […] (B) Corresponding insulin levels are depicted in the control and Ac-hE18A-NH2 group only. Control animals become relatively insulin resistant at day 18 as depicted by hyperinsulinemia and hyperglycemia. […] Data are expressed as Mean±SEM; *p<0.05.
# Relatively infrequent injections (biweekly) of the peptides as compared to vehicle were able to improve glucose homeostasis in the ZDF rats. Form the studies it was determined that adiponectin levels in the peptide treated animals were much higher than in controls at day 33 (5.7±1 vs. […], p<0.05). […] Adiponectin also prevents the production and action of pro-inflammatory TNF-α and IL-6 and induces anti-inflammatory cytokine IL-10 and IL-1 receptor antagonist. A summary of the potential effects of the peptides on liver, pancreas, peripheral tissue, blood and blood vessel are depicted in FIG. 5.
# [3] = system: 1% cholesterol fed NZW-rabbits; test: Plasma cholesterol in high fat (1% cholesterol) diet rabbits; assay type: in vivo, rabbit; conditions: intravenously two times; end of 14 days (21 days after initiation of atherogenic diet); n=4; control about 2000 mg/dl
# [4] = system: WHHL rabbits; test: Ac-hE18A-NH2 in WHHL rabbits: plasma PON, lipid hydroperoxides, cholesterol, endothelial function; assay type: in vivo, rabbit; conditions: plasma of WHHL rabbits; p<0.05; FIG. 1
# Text: These rabbits have defective LDL receptors and therefore have increased atherogenic lipoproteins (mainly LDL). […] This was associated with improved aortic endothelial function. This improvement in endothelial function was mediated in part by increase in PON activity with associated decrease in plasma lipid hydroperoxide (FIG. 1). […] PON is an anti-oxidant enzyme associated with HDL and is responsible for scavenging LOOH in plasma. The lipid lowering effects of Ac-hE18A-NH2 in 1% cholesterol fed NZW-rabbits have also been shown. These animals have elevated cholesterol that are rich in VLDL type of particles.
# [5] = system: 1% cholesterol fed NZW-rabbits; test: Plasma turbidity and aortic atherosclerosis (en face Oil Red O) in 1% cholesterol fed NZW rabbits; assay type: in vivo, rabbit
# Procedure: In another set of experiments it was noted that Ac-hE18A-NH2 clears the plasma turbidity in 1% cholesterol fed NZW-rabbits. 3 mg/kg of peptide was administered intravenously/week. The rabbits were sacrificed after 51 days from the start of diet. Aortas were harvested and en face analysis was done on Oil Red O stained tissue samples. […] This was associated with decrease in atherogenic lipoproteins and inhibition of atherosclerosis at day 51.
# [6] = 5 mg/kg i.v. biweekly, day 18, versus control
# [7] = day 33, no additional peptide after day 18
# [8] = 1% cholesterol fed NZW rabbits, 3 mg/kg i.v./week, day 51
substance,measurement,setting,value
Ac-LRKLRKRLLRDWLKAFYDKVAEKLKEAF-NH2 [Ac-hE18A-NH2],LDL cholesterol,[1],dramatic decrease
same,aortic endothelial function,[1],improved
same,total cholesterol,[1],dramatic decrease
same,fasting plasma glucose,"[2]; 5 mg/kg i.v. biweekly until day 18, day 18 and day 33, versus control",only mild increase
same,plasma glucose levels,"[2]; 5 mg/kg i.v. biweekly, day 18",normal
same,insulin resistance,[2]; [6],much less
same,plasma insulin levels,[2]; [6],lower
same,beta cell function,"[2]; day 18 to day 33, no additional peptide",relatively preserved
same,plasma glucose,[2]; [7],milder increase
same,plasma insulin,[2]; [7],increase
same,plasma cholesterol levels,[3],~1000 mg/dL
same,HDL associated Paraoxonase (PON) activity,[4],increase
same,lipid hydroperoxides (LOOH),[4],decrease
same,atherogenic lipoproteins,[5]; [8],decrease
same,atherosclerosis (en face analysis of Oil Red O stained aortas),[5]; [8],inhibits
same,plasma turbidity,"[5]; 1% cholesterol fed NZW-rabbits, 3 mg/kg intravenously/week",clears
